Measured values from ChEMBL document CHEMBL4811292, “Discovery of novel β-turn mimetic-based peptides as novel quorum sensing inhibitors of gram-negative bacteria” (Bioorg Med Chem Lett, 2021).
≈ marks a conversion by molar mass, not a printed value. Calls of active or inactive are those of the source. The calls are words filed in the database; no cut-off is given here.

Assays:
[1] = Inhibition of quorum sensing system in Chromobacterium violaceum ATCC 31532 assessed as reduction in violacein production at <100 uM; details: dose microM <100
[2] = system: Pseudomonas aeruginosa; assay: Antibacterial activity against Pseudomonas aeruginosa assessed as inhibition of cell growth; type: functional
[3] = system: Staphylococcus epidermidis; assay: Inhibition of quorum sensing system in Staphylococcus epidermidis
[4] = Inhibition of quorum sensing system in Chromobacterium violaceum ATCC 31532 assessed as reduction in violacein production at 100 uM
[5] = Inhibition of quorum sensing system lasB in Pseudomonas aeruginosa transfected with lasB-gfp assessed as reduction of GFP production
[6] = system: Pseudomonas aeruginosa; assay: Antibiofilm activity against Pseudomonas aeruginosa PA14 assessed as inhibition of biofilm formation at 15 to 50 uM measured after 48 hrs; type: functional, organism-based; details: dose 15-50 µM
[7] = system: Pseudomonas aeruginosa; assay: Potency index, ratio of 4NPO IC50 to test compound IC50 for inhibition of quorum sensing system lasB in Pseudomonas aeruginosa transfected with lasB-gfp
[8] = system: Pseudomonas aeruginosa; assay: Antibiofilm activity against Pseudomonas aeruginosa PA14 assessed as inhibition of biofilm formation at 15 to 50 uM measured after 48 hrs relative to control; type: functional; details: dose 15-50 µM
[9] = system: Pseudomonas aeruginosa; assay: Inhibition of quorum sensing system lasB in Pseudomonas aeruginosa transfected with lasB-gfp assessed as reduction of GFP production at 10 uM
[10] = system: Pseudomonas aeruginosa; assay: Inhibition of quorum sensing system lasB in Pseudomonas aeruginosa transfected with lasB-gfp assessed as reduction of GFP production at 5 uM
[11] = system: Pseudomonas aeruginosa; assay: Antibiofilm activity against Pseudomonas aeruginosa PA14 assessed as inhibition of biofilm formation at 50 uM measured after 48 hrs relative to control; type: functional
[12] = system: Pseudomonas aeruginosa; assay: Inhibition of quorum sensing system lasB in Pseudomonas aeruginosa transfected with lasB-gfp assessed as reduction of GFP production at 10 to 15 uM; details: dose 10-15 µM

Row | inhibition [1] | MIC [2] [µM] | inhibition [3] | inhibition [4] [%] | IC50 [5] | IC50 ([5]; read-out: IC50) [µM] | Ratio IC50 [7] | inhibition [9] | inhibition [10] | inhibition [12] | Compound | inhibition [6] | inhibition (INH) [8] [%] | inhibition at 50 µM [11] [%]
1 | inactive | 100 (≈ 57.4 µg/mL) | inactive | 12 | Not Active |  |  |  |  |  | CCCCN1C[C@H]2N(C(=O)CN(c3ccc(C)cc3)N2C(=O)NCc2ccccc2)[C@@H](Cc2ccc(Cl)cc2)C1=O |  |  | 
2 |  |  |  | 66 |  | 27 |  |  |  |  | O=[N+]([O-])c1cc[n+]([O-])cc1 | Active |  | 
3 | inactive | > 100 | inactive | 49 |  | 7 | 2 | Active |  |  | C=CCNC(=O)N1[C@H]2CN(Cc3ccccc3)C(=O)[C@H](C(C)CC)N2C(=O)CN1c1ccc(C)cc1 (some centres not stated) |  | 20 | 
4 | inactive | > 100 | inactive | 62 |  | 4 | 2 |  | Active |  | C=CCNC(=O)N1[C@H]2CN(Cc3ccccc3)C(=O)[C@H](Cc3ccccc3)N2C(=O)CN1c1ccc(C)cc1 |  | 80 | 
5 | inactive | > 150 | inactive | 52 |  | 12 | 2 |  |  | Active | Cc1ccc(N2CC(=O)N3[C@@H](CC(C)C)C(=O)N(Cc4ccco4)C[C@@H]3N2C(=O)NCc2ccccc2)cc1 |  |  | 80
6 | inactive | > 150 | inactive | 21 | Not Active |  |  |  |  |  | CCCCN1C[C@H]2N(C(=O)CN(c3ccc(C)cc3)N2C(=O)NCc2ccccc2)[C@@H](C(C)C)C1=O |  |  | 
